For 21 molecules, T/C results are on record in PubChem BioAssay AID296 (DTP/NCI, 2004).

Several values for one entry are separate records, joined by “and”; a condition that tells them apart may be missing. Identical values can stand only once. Records with an inconclusive call do not appear. *1 amine or outer side, *2 acyl side, *3 side chain or, on linkers, in order; H or OH if unused. Where a SMILES comes first, the peptide text is derived from it. Bridges are numbered along the chain shown (N, C = ends). Roman numbers before positions name the chains, in order. [ ]: non-standard residue; d: D form. Actinocin(1to9) = Cc1c2oc3c(C)ccc(C(=O)[*:2])c3nc-2c(C(=O)[*:1])c(N)c1=O; NMeV = CN[CH](C(=O)O)C(C)C; Aze = O=C(O)[CH]1CCN1; Sar = CNCC(=O)O

This assay has as its system MX-1 breast xenograft, nude mice, tumor weight T/C. Kind of assay: NCI In Vivo Anticancer Drug Screen. Data for tumor model Human Mammary Carcinoma MX-1 Xenograft (intrarenal inoculation) in NU/NU Swiss (nude) mice. Conditions: endpoint: mean tumor weight change, higher = larger tumour. The method, boiled down:
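Compound dosed to mice with transplantable tumor; vehicle group as control. Endpoint survival or tumour size, reported as T/C.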
In general terms: Xenograft models place foreign cells or tissue in a host animal.

Setting [1] is: dose: 12.5 mg/kg/injection, schedule: Q01DX010 (sc), vehicle: Klucel (hydroxypropylcellulose) (HPC).
Where [2] appears, read: dose: 300.0 mg/kg/injection, schedule: Q04DX003 (sc), vehicle: Klucel (hydroxypropylcellulose) (HPC).
The mark [3] stands for this setting: dose: 600.0 mg/kg/injection, schedule: Q04DX003 (sc), vehicle: Klucel (hydroxypropylcellulose) (HPC).
[4] abbreviates: dose: 300.0 mg/kg/injection, schedule: Q04DX003 (sc), vehicle: saline with Tween-80.
[5] abbreviates: dose: 600.0 mg/kg/injection, schedule: Q04DX003 (sc), vehicle: saline with Tween-80.
The mark [6] stands for this setting: dose: 1200.0 mg/kg/injection, schedule: Q04DX003 (sc), vehicle: saline with Tween-80.
The mark [7] stands for this setting: dose: 25.0 mg/kg/injection, schedule: Q01DX010 (sc), vehicle: Klucel (hydroxypropylcellulose) (HPC).
Setting [8] is: dose: 100.0 mg/kg/injection, schedule: Q01DX010 (sc), vehicle: Klucel (hydroxypropylcellulose) (HPC).
Where [9] appears, read: dose: 0.5 mg/kg/injection, schedule: Q04DX003 (sc), vehicle: saline + alcohol.
[10] abbreviates: dose: 150.0 mg/kg/injection, schedule: Q04DX003 (sc), vehicle: saline with Tween-80.

`C=C1C(=O)OCC2C(C(=O)O)=CC3C(C)C(C)=CC123` (stereo not drawn): the T/C by setting is: (dose: 6.25 mg/kg/injection, schedule: Q01DX010 (sc), vehicle: Klucel (hydroxypropylcellulose) (HPC)) 78 % of control; under setting [1], 113 % of control.
Consider `CCc1ccc(C2=C(O)C(=O)C(c3ccccc3)=C(O)C2=O)cc1`, for which the T/C reads like this: (dose: 150.0 mg/kg/injection, schedule: Q04DX003 (sc), vehicle: Klucel (hydroxypropylcellulose) (HPC)) 100 % of control; under setting [2], 100 % of control; under setting [3], 77 % of control.
Take `O=NN(CCCl)C(=O)NC1OC(CO)C(O)C(O)C1O` (stereo not drawn): the T/C is, setting by setting: (dose: 5.0 mg/kg/injection, schedule: Q04DX003 (sc), vehicle: saline) 91 % of control; (dose: 10.0 mg/kg/injection, schedule: Q04DX003 (sc), vehicle: saline) 69 % of control; (dose: 20.0 mg/kg/injection, schedule: Q04DX003 (sc), vehicle: saline) 40 % of control.
In the case of `COc1ccc(S(=O)(=O)N/N=C/C(=O)O)cc1`, the T/C (dose: 12.5 mg/kg/injection, schedule: Q01DX010 (sc), vehicle: saline with Tween-80) was 116 % of control.
As to `Nc1nc(=O)n(C2OC(CO)C(O)C2O)cc1F` (stereo not drawn), the T/C under setting [4] was 103 % of control; the T/C under setting [5] is 77 % of control; the T/C under setting [6] is 81 % of control; the T/C (dose: 2400.0 mg/kg/injection, schedule: Q04DX003 (sc), vehicle: saline with Tween-80) was 32 % of control.
As for `CCOC(=O)c1ccc(NN=NCCF)cc1`, the T/C is 107 % of control (dose: 150.0 mg/kg/injection, schedule: Q04DX003 (ip), vehicle: distilled water + Tween-80 + alcohol); 112 % of control (dose: 300.0 mg/kg/injection, schedule: Q04DX003 (ip), vehicle: distilled water + Tween-80 + alcohol); 55 % of control (dose: 600.0 mg/kg/injection, schedule: Q04DX003 (ip), vehicle: distilled water + Tween-80 + alcohol).
As for `O.O.[NH-]C1CCCCC1[NH-].[Pt+2]` (stereo not drawn), the T/C is 111 % of control (dose: 2.5 mg/kg/injection, schedule: Q01DX010 (sc), vehicle: dextrose); 76 % of control and 78 % of control (dose: 5.0 mg/kg/injection, schedule: Q01DX010 (sc), vehicle: dextrose); 55 % of control and 60 % of control (dose: 10.0 mg/kg/injection, schedule: Q01DX010 (sc), vehicle: dextrose); 26 % of control and 36 % of control (dose: 20.0 mg/kg/injection, schedule: Q01DX010 (sc), vehicle: dextrose).
Consider `CN1C(=O)NC(c2ccc(Cl)cc2)(c2ccc(Cl)cc2)C1=O`, for which the T/C reads like this: (dose: 50.0 mg/kg/injection, schedule: Q01DX010 (sc), vehicle: saline with Tween-80) 90 % of control; (dose: 100.0 mg/kg/injection, schedule: Q01DX010 (sc), vehicle: saline with Tween-80) 109 % of control; (dose: 200.0 mg/kg/injection, schedule: Q01DX010 (sc), vehicle: saline with Tween-80) 60 % of control; (dose: 400.0 mg/kg/injection, schedule: Q01DX010 (sc), vehicle: saline with Tween-80) 49 % of control.
Turning to `Cc1ccc(C2NC(=S)N3C(c4ccc(C)cc4)NC(=S)N23)cc1` (stereo not drawn), the T/C runs as follows: under setting [2], 91 % of control; under setting [3], 112 % of control; (dose: 2400.0 mg/kg/injection, schedule: Q04DX003 (sc), vehicle: Klucel (hydroxypropylcellulose) (HPC)) 89 % of control.
As to `COc1cc2c(cc1O)N=C[C@@H]1CCC(O)N1C2=O` (mixture of isomers), the T/C (dose: 1.0 mg/kg/injection, schedule: Q01DX010 (sc), vehicle: saline) is 295 % of control; the T/C (dose: 2.0 mg/kg/injection, schedule: Q01DX010 (sc), vehicle: saline) was 197 % of control; the T/C (dose: 4.0 mg/kg/injection, schedule: Q01DX010 (sc), vehicle: saline) was 214 % of control; the T/C (dose: 8.0 mg/kg/injection, schedule: Q01DX010 (sc), vehicle: saline) is 187 % of control.
Take `CCCCc1ccc(-n2c(C)c(COC(=O)NC)c(COC(=O)NC)c2C)cc1`: the T/C was 114 % of control under setting [1]; 84 % of control under setting [7]; 34 % of control (dose: 50.0 mg/kg/injection, schedule: Q01DX010 (sc), vehicle: Klucel (hydroxypropylcellulose) (HPC)); 77 % of control under setting [8].
On to `CC(=O)Nc1ccc(O)c(O)c1`, for which the T/C is 75 % of control under setting [4], 52 % of control under setting [5] and 47 % of control under setting [6].
For the molecule `Cc1c2oc3c(C)ccc(C(=O)NC4C(=O)NC(C(C)C)C(=O)N5CCCC5C(=O)N(C)CC(=O)N(C)C(C(C)C)C(=O)OC4C)c3nc-2c(C(=O)NC2C(=O)NC(C(C)C)C(=O)N3CCC3C(=O)N(C)CC(=O)N(C)C(C(C)C)C(=O)OC2C)c(N)c1=O` (stereo not drawn) (I: TV[Aze][Sar][NMeV] / II: TVP[Sar][NMeV]; ester I:1-I:C, II:1-II:C; linker I:N-II:N via Actinocin(1to9); configuration not given here), the T/C is 53 % of control (dose: 0.25 mg/kg/injection, schedule: Q04DX003 (sc), vehicle: saline + alcohol); 12 % of control under setting [9]; 112 % of control (dose: 0.5 mg/kg/injection, schedule: Q04DX003 (sc), vehicle: saline); -80 % of control (dose: 1.0 mg/kg/injection, schedule: Q04DX003 (sc), vehicle: saline + alcohol); 47 % of control (dose: 1.0 mg/kg/injection, schedule: Q04DX003 (sc), vehicle: saline); 40 % of control (dose: 2.0 mg/kg/injection, schedule: Q04DX003 (sc), vehicle: saline).
Turning to `Nc1ccccc1N`, the T/C was 103 % of control under setting [7]; 80 % of control and 211 % of control under setting [8]; 34 % of control and 47 % of control (dose: 200.0 mg/kg/injection, schedule: Q01DX010 (sc), vehicle: Klucel (hydroxypropylcellulose) (HPC)).
On to `C1=CCOCOC1`, for which the T/C runs as follows: under setting [10], 71 % of control; under setting [4], 70 % of control.
Regarding `Nc1cc2c3c(cccc3c1)C(=O)N(CCN1CCCC1)C2=O`, the T/C reads like this: (dose: 25.0 mg/kg/injection, schedule: Q04DX003 (sc), vehicle: saline with Tween-80) 60 % of control; (dose: 50.0 mg/kg/injection, schedule: Q04DX003 (sc), vehicle: saline with Tween-80) 60 % of control; (dose: 100.0 mg/kg/injection, schedule: Q04DX003 (sc), vehicle: saline with Tween-80) 120 % of control; (dose: 200.0 mg/kg/injection, schedule: Q04DX003 (sc), vehicle: saline with Tween-80) 119 % of control.
Consider `CC(C)=CC(=O)OC1C2C(C)=CC(=O)C(O)C2(C)C2C3(O)OCC24C(CC(=O)OC14)C(C)C3O` (stereo not drawn), for which the T/C runs as follows: (dose: 1.25 mg/kg/injection, schedule: Q04DX003 (sc), vehicle: distilled water + Tween-80) 41 % of control; (dose: 2.5 mg/kg/injection, schedule: Q04DX003 (sc), vehicle: distilled water + Tween-80) 82 % of control; (dose: 5.0 mg/kg/injection, schedule: Q04DX003 (sc), vehicle: distilled water + Tween-80) 71 % of control; (dose: 10.0 mg/kg/injection, schedule: Q04DX003 (sc), vehicle: distilled water + Tween-80) 88 % of control.
`NCCc1ccc(O)c(O)c1`: the T/C reads like this: (dose: 100.0 mg/kg/injection, schedule: Q01DX010 (sc), vehicle: saline) 77 % of control; (dose: 200.0 mg/kg/injection, schedule: Q01DX010 (sc), vehicle: saline) 62 % of control; (dose: 400.0 mg/kg/injection, schedule: Q01DX010 (sc), vehicle: saline) 80 % of control; (dose: 800.0 mg/kg/injection, schedule: Q01DX010 (sc), vehicle: saline) 61 % of control.
With `Nc1nc2c(C(=O)N3CCCC3)nnn2c2ccccc12`, the T/C (dose: 37.5 mg/kg/injection, schedule: Q04DX003 (sc), vehicle: saline with Tween-80) is 35 % of control; the T/C (dose: 75.0 mg/kg/injection, schedule: Q04DX003 (sc), vehicle: saline with Tween-80) is 74 % of control; the T/C under setting [10] was 49 % of control.
With `CO[C@H]1Nc2c(ccc(C)c2O)C(=O)N2C=C(/C=C/C(N)=O)C[C@@H]12`, the T/C by setting is: under setting [9], 18 % of control and 40 % of control; (dose: 2.0 mg/kg/injection, schedule: Q04DX003 (sc), vehicle: saline + alcohol) -100 % of control.
Consider `C[n+]1c(/C=C\C=C\N2CCCCC2)sc2ccccc21`, for which the T/C runs as follows: (dose: 0.75 mg/kg/injection, schedule: Q04DX003 (sc), vehicle: Klucel (hydroxypropylcellulose) (HPC)) 84 % of control; (dose: 1.5 mg/kg/injection, schedule: Q04DX003 (sc), vehicle: Klucel (hydroxypropylcellulose) (HPC)) 93 % of control.
